The values that follow come from paper PMC8729770, “In Vitro Evaluation of Antimicrobial Peptides from the Black Soldier Fly (Hermetia Illucens) against a Selection of Human Pathogens” (Microbiology Spectrum, 2022).

Where two headings read alike, the source gives them in different places. Ends that are not written are not given here. A value given as a limit tells only on which side of the number the result lay.

The test system of experiment [1] is P. aeruginosa ATCC 9027. The experiment is classed as cell-based, Pseudomonas aeruginosa. As to conditions: for MBC P. aeruginosa ATCC 9027: plated on MHA, ≥3 log reduction vs growth control.
For experiment [2], the system named is P. aeruginosa ATCC 9027. The settings on record: ATCC 9027, 16 h.
Experiment [3] deals with S. aureus ATCC 6538. The format is cell-based, Staphylococcus aureus. The settings on record: determined visually, 16 h. Summed up: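 Peptides were serially diluted (64–0.25 μM, repeat 32–0.016 μM) against 5 × 10^3 CFU/mL inocula in MHB (bacteria) or RPMI (fungi) at 37°C for 16 h (bacteria), 24 h (C. albicans) or 48 h (A. fumigatus). MIC was read visually with resazurin readout; MBC was defined as ≥3 log reduction on MHA.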

Experiment [4] relates to P. aeruginosa ATCC 9027. Description: Inner membrane permeabilization, propidium iodide uptake assay. The format is cell-based, Pseudomonas aeruginosa. As to conditions: 32 μM versus polymyxin B 16 μM. As to the method:
To investigate the IM damage induced by the selected AMPs, a PI (Sigma-Aldrich) uptake assay was performed, adapted from […] et al. ([80]). P. aeruginosa ATCC 9027 was grown until the mid-log phase in MHB. The bacteria were centrifuged (3,000 × g, 15 min) and resuspended in 5 mM HEPES (Sigma-Aldrich) buffer (pH 7.4) to an OD600 of 0.5. […] Fluorescence was measured every 5 min during 1 h using a microplate reader (Promega) at λexcitation = 530 nm and λemission = 620. Data were normalized based on the fluorescent signal in the presence of 50 μL HEPES buffer and 150 μL PI bacterial suspension. The assay was carried out in triplicate.

Experiment [5] concerns P. aeruginosa ATCC 9027. Description: Outer membrane permeabilization with N-phenyl-naphthylamine. The format is cell-based, Pseudomonas aeruginosa. As to conditions: compared with 16 μM polymyxin B. As to the method:
N-phenyl-naphthylamine (NPN; Tokyo chemical industry [TCI]) was used to study the permeabilization of the OM as described by […] et al. ([81]). Briefly, P. aeruginosa ATCC 9027 was grown until the mid-log phase in MHB. Afterwards, the cells were centrifuged (3,000 × g, 15 min) and resuspended in 5 mM HEPES buffer (pH 7.4) to an OD600 of 0.5. […] Fluorescence was measured every 5 min during 1 h using a microplate reader (Promega) with λexcitation = 350 nm and λemission = 420. Data were normalized based on the fluorescent signal in the presence of 50 μL HEPES buffer, 50 μL NPN, and 100 μL bacteria. Experiments were carried out in triplicate.

Experiment [6] has as its system E. coli ATCC 8739. The settings on record: ATCC 8739, 16 h.
In experiment [7] the test system is B. cenocepacia LMG 16656. As to conditions: for IC50: read-out: IC50 B. cenocepacia LMG 16656, starting at 32 μM, 10^5 CFU/mL, 48 h, 37°C, resazurin; for MIC B. cenocepacia LMG 16656: visual.
Experiment [8] relates to M. tuberculosis ATCC 25177 (H37Ra). As to conditions: for IC50: read-out: IC50 M. tuberculosis ATCC 25177 (H37Ra), starting at 32 μM, 5×10^5 CFU/mL, 7 days, 37°C, resazurin; for MIC M. tuberculosis ATCC 25177 (H37Ra): visual. (Resazurin is reduced to fluorescent resorufin, in cell work by metabolically active cells.)
In experiment [9] the test system is preformed P. aeruginosa ATCC 15442 biofilm. Description: Biofilm eradication (postexposure). The settings on record: 128-0.5 μM, 16 h; resazurin. The experiment is classed as cell-based, Pseudomonas aeruginosa. As to the method:
After 16 h of incubation at 37°C and shaking at 110 rpm (New Brunswick Innova 4300), a resazurin assay was used as described by Gilbert-Girard et al. to determine the viability of the bacterial cells in the biofilm ([79]). After incubation, the growth medium was removed from the well plates and the bacterial biofilms were washed once with PBS to remove remaining planktonic cells. […] The fluorescence of the wells was measured at λexcitation = 550 nm and λemission = 590 using a microplate reader (Promega). Afterwards, a crystal violet staining was applied to determine the biomass of the biofilms ([79]). The resazurin solution was removed from the well plates and 200 μL of 100% ethanol (VWR Chemicals) was added to fix the biofilms. After 15 min of incubation, the ethanol was discarded from the wells and the plates were left to air dry for 30 min. […] The staining solution was removed after 5 min and the biofilms were washed with PBS. After air-drying for 10 min, the crystal violet stain was solubilized in 200 μL of 100% ethanol. […] The experiment was carried out three times. Polymyxin B sulfate (Sigma-Aldrich) was included as a reference. […] The next day, bacterial viability and biomass were determined with a resazurin assay and crystal violet assay as described earlier. […]

Consider “RWYKKIFKPVEKAVQRVRDGTLQALGVAQQAANVYATAQGAQQQRHA-NH2 [Hill-Cec10]”, for which the “MBC P. aeruginosa ATCC 9027” value turned out to be 16.00 µM in [1] (repeat 1) and 2.00 µM in [1] (repeat 2). Further, the “MIC P. aeruginosa ATCC 9027” value in experiment [1] (repeat 2, 32-0.016 μM, determined visually, 16 h) came to 2.00 µM. The half-maximal inhibitory concentration (IC50) in experiment [2] is 0.75 µM; in [7] (repeat 1) it was more than 32 µM; in experiment [7] (repeat 2), more than 32 µM; in experiment [8] (repeat 1), more than 32 µM; in experiment [8] (repeat 2), more than 32 µM. Besides, the “MIC S. aureus ATCC 6538” value is more than 64.00 µM in experiment [3] (repeat 1, 64-0.25 μM) and more than 32.00 µM in [3] (repeat 2, 32-0.016 μM). Also, in experiment [4], the “PI uptake (inner membrane permeabilization)” value is on record as “exceeds that of a high dose of polymyxin B”. The “maximum NPN uptake” value in experiment [5] (at 32 μM) was 75%. The “concentration to achieve at least 50% NPN uptake” value in [5] was 4 µM. The “MIC E. coli ATCC 8739” value in experiment [6] was determined as 1 µM. In addition, the “MIC B. cenocepacia LMG 16656” value in [7] (repeat 1) and in experiment [7] (repeat 2) was more than 32 µM each time. Besides, the “MIC M. tuberculosis ATCC 25177 (H37Ra)” value in experiment [8] (repeat 1) and in [8] (repeat 2) was more than 32 µM in each case. Further, the “effect on viability of preformed biofilm compared with the untreated control” value in experiment [9] was “No significant effect”.

A word on the IC50: it is the concentration that inhibits the measured activity by half.
